Data: patent US8623924B2, “Compositions and methods for modulating metabolic pathways” (Nusirt Sciences, Inc., priority 2011, dated 2014)
Marks after values point to notes of the source that are not given here.

Assays:
Sirt1 [1] = biological target: T1, Sirt1 (Mus musculus, UniProt Q923E4); assay: Adipose tissue Sirt1 activity in diet-induced obese mice; type: in vivo
T1 construct: from tissue; host or cells: adipose tissue of c57/BL6 mice
T1 sequence (Q923E4 1-737): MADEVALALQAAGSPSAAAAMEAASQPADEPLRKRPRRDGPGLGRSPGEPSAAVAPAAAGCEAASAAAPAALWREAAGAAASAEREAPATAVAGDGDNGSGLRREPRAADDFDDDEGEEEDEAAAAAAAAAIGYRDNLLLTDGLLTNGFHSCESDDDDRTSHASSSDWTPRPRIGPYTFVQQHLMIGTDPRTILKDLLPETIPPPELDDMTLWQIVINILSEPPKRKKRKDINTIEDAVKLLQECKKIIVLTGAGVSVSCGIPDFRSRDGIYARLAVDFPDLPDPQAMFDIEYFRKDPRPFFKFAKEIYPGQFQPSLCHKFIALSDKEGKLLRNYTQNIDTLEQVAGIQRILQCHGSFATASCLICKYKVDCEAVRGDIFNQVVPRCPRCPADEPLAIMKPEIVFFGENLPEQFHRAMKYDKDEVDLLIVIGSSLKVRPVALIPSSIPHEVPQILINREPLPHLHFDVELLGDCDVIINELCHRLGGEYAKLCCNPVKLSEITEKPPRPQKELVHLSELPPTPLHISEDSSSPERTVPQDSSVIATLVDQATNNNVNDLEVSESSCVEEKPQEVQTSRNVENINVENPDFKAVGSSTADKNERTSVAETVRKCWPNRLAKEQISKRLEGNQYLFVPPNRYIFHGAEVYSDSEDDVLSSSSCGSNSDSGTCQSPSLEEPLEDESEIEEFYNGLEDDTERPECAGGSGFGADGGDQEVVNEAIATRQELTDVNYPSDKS

[2] = Oxygen consumption/substrate utilization (metabolic chambers) in diet-induced obese mice; type: in vivo
Experimental: (§1) Six week old male c57/BL6 mice were fed a high-fat diet with fat increased to 45% of energy (Research Diets D12451) for 6 weeks to induce obesity.
Oxygen Consumption/Substrate Utilization: at the end of the obesity induction period (day 0 of treatment group) and at 2 weeks and 6 weeks of treatment, oxygen consumption and substrate utilization was measured via metabolic chambers using the Comprehensive Lab Animal Monitoring Systems (CLAMS, Columbus Instruments, Columbus, Ohio) in subgroups of each treatment group. Each animal was placed in individual cages without bedding that allow automated, non-invasive data collection. Each cage is an indirect open circuit calorimeter that provides measurement of oxygen consumption, carbon dioxide production, and concurrent measurement of food intake. All mice were acclimatized to the chambers for 24 hours prior to the experiment and maintained under the regular 12:12 light:dark cycle with free access to water and food. All experiments were started in the morning and data were collected for 24 hours. Each chamber was passed with 0.6 l of air/min and was sampled for 2 min at 32-minute intervals. Exhaust O2 and CO2 content from each chamber was compared with ambient O2 and CO2 content. Food consumption was measured by electronic scales.

[3] = Indices of insulin sensitivity (plasma glucose, insulin, HOMAIR) in diet-induced obese mice; type: in vivo; conditions: 6 weeks on diet; for Glucose (mM) / Insulin (μU/mL): plasma
Excerpt: Insulin sensitivity can be measured using a variety of techniques, including HOMAIR. HOMAIR, which is the homeostasis model assessment of insulin resistance can be used as a screening index of changes in insulin sensitivity. HOMAIR can be calculated via standard formula from fasting plasma insulin and glucose as follows: HOMAIR=[Insulin (uU/mL)×glucose (mM)]/22.5.
as §1
(§2) At the of the treatment period (6 weeks) all animals were humanely euthanized, and blood and tissues collected for further experiments.

IL-6 = assay: Inflammatory biomarker IL-6 in diet-induced obese mice; type: in vivo; conditions: 6 weeks on diet
Adiponectin = Adiponectin in diet-induced obese mice; type: in vivo; conditions: 6 weeks on diet
irisin = assay: Plasma irisin in diet-induced obese mice; type: in vivo; conditions: six weeks, resveratrol 12.5 mg/kg diet, leucine 2.42%
Experimental: as §1
As described in Example 5, C2C12 myotubes treated with the indicated combinations of compounds were used to produce conditioned media, with which 3T3-L1 adipocytes were then treated. Fatty acid oxidation was measured as in Example 5. Irisin levels were measured by Western blot and ELISA, both in conditioned media and in plasma from mice treated according to Example 4.
ELISA: Irisin was also detected in C2C12 incubation media from treated cells and in mouse plasma using a commercial enzyme immunoassay kit obtained from Phoenix Pharmaceuticals, Inc. (Burlingame, Calif.). This kit uses an irisin (FNDC5 [16-127] fragment) and streptavidin-horseradish peroxidase detection on a microplate reader at 450 nm.

C-reactive protein = assay: Inflammatory biomarker C-reactive protein in diet-induced obese mice; type: in vivo; conditions: 6 weeks on diet
MCP-1 = assay: Inflammatory biomarker MCP-1 in diet-induced obese mice; type: in vivo; conditions: 6 weeks on diet
Adipocytes (3T3-L1) = assay: Fatty acid oxidation (3H-palmitate) in 3T3-L1 adipocytes; type: cell-based; conditions: leucine 0.5 mM, resveratrol 200 nM
Experimental: High glucose medium reduced fatty acid oxidation by 46% (p<0.05).
Fatty acid oxidation was measured using ^3H-labeled palmitate oxidation, with the ^3H label trapped as water as a result of the fat oxidation. The ^3H was then measured via scintillation counter.

UCP1 = assay: Subcutaneous adipose UCP1 mRNA expression in diet-induced obese mice; type: in vivo; conditions: six weeks, resveratrol 12.5 mg/kg diet
[4] = MicroPET/CT glucose and palmitate uptake in diet-induced obese mice; type: in vivo; conditions: 6 weeks on diet
Excerpt: as §1
MicroPET/CT (Glucose and Palmitate Uptake): At the end of the treatment period (6 weeks of treatment) subgroups of each treatment diet group (5 animals/group, 35 animals total) were used to measure whole body glucose and palmitate uptake via PET/CT Imaging. To visualize these compounds using microPET imaging, the glucose or palmitate was labeled with fluorine-18 (108 mins half life) or carbon-11 (20 mins half life), respectively. Each mouse was fasted for 4 hours, then anesthetized using 1-3% isoflurane delivered by nose cone or in a mouse-sized induction chamber purpose-built for small animal imaging protocols. While under anesthesia the mice were injected iv with <2 mCi of each tracer, then be left for a period of time (minutes to up ˜1 hour) to allow the uptake of the tracer. During the scan, mice were kept warm using a thermostatically controlled heated bed and were treated with ophthalmic ointment prior to scanning. Following the live scan the mice were returned to their cage and revived. Mice were monitored constantly during this time. Following live data acquisition the mice were sacrificed by isoflurane overdose and organs harvested for further experiments.

SIRT1 [5] = assay: Sirt1 activity (fluorimetric kit), Example 5; type: cell-based; conditions: leucine 0.5 mM, HMB 5 μM, resveratrol 200 nM; summary in Example 5
Experimental: Sirt1 Activity: SIRT1 activity was measured by using the SIRT1 Fluorimetric Drug Discovery Kit (BML-AK555, ENZO Life Sciences International, Inc. PA, USA). The assay measures SIRT1 activity by the degree of deacetylation of a standardized substrate containing an acetylated lysine side chain. The substrate utilized is a peptide containing […] of human […]]), an established target of SIRT1 activity; SIRT1 activity is directly proportional to the degree of deacetylation of […]. Samples were incubated with peptide substrate (25 μM), and NAD^+ (500 μM) in a phosphate-buffered saline solution at 37° C. on a horizontal shaker for 45 minutes. The reaction was stopped with the addition of 2 mM nicotinamide and a developing solution that binds to the deacetylated lysine to form a fluorophore.

[6] = Body weight, weight gain and visceral adiposity in diet-induced obese mice; type: in vivo; conditions: 6 weeks on diet
Excerpt: as §1, §2

[7] = high resveratrol 225 mg/kg diet
[8] = low resveratrol 12.5 mg/kg diet, low HMB 2 g CaHMB/kg diet, high HMB 10 g CaHMB/kg diet, leucine 2.42% of diet

For `Oc1ccc(/C=C/c2cc(O)cc(O)c2)cc1` [resveratrol, 3,5,4′-Trihydroxy-trans-stilbene], the “adipose tissue Sirt1 activity” value (Sirt1 [1]; high dose resveratrol (FIG. 10)) was “non-significant trend towards an increase”, the “adipose tissue Sirt1 activity” value (Sirt1 [1]; low dose of resveratrol, HMB, or their combinations with HMB or leucine (FIG. 10)) was “Neither resveratrol nor HMB exerted significant independent effects” and the “Heat Production” value [2, 7] was 0.552 ± 0.015^b. For the same compound, the “Heat Production” value [2, 8] was 0.517 ± 0.014^a, the HOMAIR [3, 7] was 0.59 ± 0.26^b and the HOMAIR [3, 8] was 2.41 ± 0.66^a. The “Glucose (mM)” value [3, 7] was 5.14 ± 0.75^a mM, the “Insulin (μU/mL)” value [3, 7] was 10.1 ± 2.7^a μU/mL and the “Glucose (mM)” value [3, 8] was 5.14 ± 0.85^a mM. For the same compound, the “Insulin (μU/mL)” value [3, 8] was 10.4 ± 1.6^a μU/mL, the “IL-6 (pg/mL)” value (IL-6; [7]) was 14.1 ± 1.3^b pg/mL and the “IL-6 (pg/mL)” value (IL-6; [8]) was 23.2 ± 2.9^a pg/mL. For the same compound, the “Adiponectin (ng/mL)” value (Adiponectin; [7]) was 14.8 ± 1.8^b ng/mL, the “Adiponectin” value (Adiponectin; [8]) was 12.4 ± 1.1 ng/mL and the “increase in plasma irisin” value (irisin) was “no independent effect”. The “C-reactive protein (ng/mL)” value (C-reactive protein; [7]) was 123.9 ± 35.3^a ng/mL, the “C-reactive protein (ng/mL)” value (C-reactive protein; [8]) was 134.8 ± 8.5^a ng/mL and the “MCP-1 (pg/mL)” value (MCP-1; [7]) was 27.3 ± 6.8^b pg/mL. For the same compound, the “MCP-1 (pg/mL)” value (MCP-1; [8]) was 104.4 ± 16.5^a pg/mL, the “increase in fatty acid oxidation, high glucose” value (Adipocytes (3T3-L1); high (25 mM) glucose, 4 hours, HMB 5 uM, vs. control) was “no effect” and the “stimulation of fatty acid oxidation” value (Adipocytes (3T3-L1); HMB 5 μM, summary in Example 5) was “no effect”. For the same compound, the “increase in UCP1 expression in white subcutaneous adipose tissue” value (UCP1) was “no independent effect”, the “Fat oxidation (PET palmitate uptake; Muscle SUV)” value [4, 7] was 2.29 ± 0.11^b SUV and the “Muscle Glucose Uptake (18F-deoxyglucose SUV)” value [4, 7] was 3.87 ± 0.32^a SUV. For the same compound, the “Fat oxidation (PET palmitate uptake; Muscle SUV)” value [4, 8] was 1.51 ± 0.44^a SUV, the “Muscle Glucose Uptake (18F-deoxyglucose SUV)” value [4, 8] was 3.63 ± 1.29^a SUV and the “stimulation of Sirt1 activity” value (SIRT1 [5]) was “no effect”. For the same compound, the “Visceral Adipose Volume (mm^3)” value [6, 7] was 6031 ± 323^a mm^3, the “Weight (g)” value [6, 7] was 38.7 ± 1.2^a g and the “Weight gain (g)” value [6, 7] was 22.3 ± 2.4^a g. The “Visceral Adipose Volume (mm^3)” value [6, 8] was 6551 ± 575^a mm^3, the “Weight (g)” value [6, 8] was 40.8 ± 2.5^a g and the “Weight gain (g)” value [6, 8] was 20.9 ± 1.5^a g.
